How the values were obtained:
Parkinsonian patients = conditions: 11 patients, 5 g/day, after 2 weeks, especially on akinesia, tremor and mood
Parkinsonism = conditions: with L-Dopa; J. Amer. Med. Assoc. 230, 305, 1974; cited from earlier work
[1] = target: dopaminergic receptors (striatum) (Mus musculus, UniProt P61168)
Protocol: (§1) Since nude mice have no thymus gland, all of the lymphocytes of the spleen thereof are of the B type. Thus, these mice have the advantage of presenting pure B lumphocytes for observation. […] The [^3 H] spiperone bindings to striatal membranes (see Europ. J. Pharmacol. 50, 283, 1978) and intact B lymphocytes (see J. Pharm. Pharmacol. 33, 102, 1981) were performed in the same animal.

[2] = tested on: dopaminergic receptors (B lymphocytes); conditions: [^3 H spiperone] = 1 nM; L-methionine 500 mg/kg I.P. twice daily over 5 days; n = 10; *P < 0.01; control 17 ± 3
Protocol: as §1

rats = conditions: IV; cited from earlier work
[3] = tested on: [^3 H] spiperone binding sites (lymphocytes from Parkinsonian patients); conditions: after treatment, before treatment 7±6
[4] = Water solubility and wettability of L-methionine; assay type: physicochemical; conditions: flakes

Sequence of dopaminergic receptors (striatum) (P61168 whole entry): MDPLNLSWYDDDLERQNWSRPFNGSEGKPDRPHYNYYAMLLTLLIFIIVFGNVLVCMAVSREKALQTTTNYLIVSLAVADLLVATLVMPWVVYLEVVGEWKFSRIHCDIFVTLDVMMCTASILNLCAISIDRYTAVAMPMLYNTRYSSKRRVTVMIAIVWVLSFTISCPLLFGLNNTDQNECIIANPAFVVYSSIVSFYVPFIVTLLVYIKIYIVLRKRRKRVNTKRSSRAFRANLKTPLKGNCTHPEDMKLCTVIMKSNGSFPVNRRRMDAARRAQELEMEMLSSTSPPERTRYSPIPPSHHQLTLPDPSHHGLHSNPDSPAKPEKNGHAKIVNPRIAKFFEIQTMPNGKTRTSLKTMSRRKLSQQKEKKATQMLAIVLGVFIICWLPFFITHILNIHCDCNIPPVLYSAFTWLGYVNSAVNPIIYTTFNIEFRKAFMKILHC

CSCC[C@H](N)C(=O)O [L-methionine]
improvement of Parkinsonism (Parkinsonian patients): very good improvement | effect on L-Dopa effectiveness in Parkinsonism (Parkinsonism): may reverse the effectiveness of L-Dopa | affinity constant [KD] ([1]; KD of [^3 H] spiperone (not of L-methionine), striatum of treated mice, chronic treatment, control 0.17 nM): 0.20 nM | [^3 H] spiperone binding, striatum ([1]; [^3 H spiperone] = 0.3 nM, L-methionine 500 mg/kg I.P. twice daily over 5 days, n = 10, **P < 0.001, control 40 ± 1): 62 ± 3 fmoles/mg protein | number of binding sites [Bmax] ([1]; [^3 H] spiperone, striatum of treated mice, chronic treatment, control 302): 491 fmoles/mg protein | change in affinity constant [KD] ([1]; [^3 H] spiperone, striatum, chronic treatment of L-methionine): no change in the affinity constant was detected | [^3 H] spiperone binding, B lymphocytes [2]: 37 ± 5 fmoles/10^6 cells | LD50 (rats): 4500 mg/kg | number of [^3 H] spiperone binding sites to lymphocytes [3]: 98±19 fentomoles per 10^6 cells | solubility in water [4]: slightly soluble in water | wettability [4]: poorly wettable

Reference: patent US4416898A, “Therapeutic uses of methionine” (Pharmuka Laboratoires, priority 1982, dated 1983)
